Data on two compounds can be found in patent US4810800A, “Novel imidazole dopamine beta hydroxylase inhibitors” (Merrell Dow Pharmaceuticals Inc., priority 1988, dated 1989).

In experiment [1] the target is T1, dopamine beta-hydroxylase (Bos taurus, UniProt P15101).
T1 sequence (P15101 1-610): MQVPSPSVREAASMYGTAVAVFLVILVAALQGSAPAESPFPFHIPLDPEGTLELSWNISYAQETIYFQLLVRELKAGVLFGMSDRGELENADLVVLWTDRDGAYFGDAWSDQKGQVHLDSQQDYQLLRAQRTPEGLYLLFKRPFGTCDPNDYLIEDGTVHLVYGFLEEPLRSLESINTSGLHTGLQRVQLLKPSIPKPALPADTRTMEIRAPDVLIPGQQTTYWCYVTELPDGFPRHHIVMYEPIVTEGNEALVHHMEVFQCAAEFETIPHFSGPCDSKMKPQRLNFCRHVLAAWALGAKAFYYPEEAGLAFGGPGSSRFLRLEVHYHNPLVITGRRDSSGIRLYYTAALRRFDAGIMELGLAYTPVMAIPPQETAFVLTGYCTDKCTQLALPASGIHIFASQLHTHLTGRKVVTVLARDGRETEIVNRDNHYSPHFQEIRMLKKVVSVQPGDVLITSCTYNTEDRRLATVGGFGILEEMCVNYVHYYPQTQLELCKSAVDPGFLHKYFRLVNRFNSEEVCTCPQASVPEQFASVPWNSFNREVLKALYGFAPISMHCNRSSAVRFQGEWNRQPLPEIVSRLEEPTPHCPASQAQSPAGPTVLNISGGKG
The experiment in a line: in vitro DBH inhibition (conversion of tyramine to octopamine; oxygen uptake by polarographic electrode). The format is biochemical. As to conditions: pH of 5, 37° C. preferably. The protocol:
The DBH inhibitory properties of the compounds of this invention can readily be determined in vitro by standard and well known procedures for assaying conversion of tyramine to octopamine in the presence of dopamine beta-hydroxylase. Enzymatic oxygenation by DBH is determined in aqueous solution in the presence of molecular oxygen, an electron donor such as ascorbate, and the necessary cofactors for the enzyme at pH of 5 and a temperature of 20°-40° C., preferably 37° C. The test compound is added at the desired concentration, and the system is incubated. Activity is measured by measuring the oxygen uptake using a polarographic electrode and an oxygen monitor by the method of S. May, et al., J. Biol. Chem. 256, 2258 (1981). Inhibition is given in molar concentration of compound at which DBH activity was halved (IC50) when the test compounds were tested according to the above described procedure. The IC50 (expressed in micromolar units) data of some of the compounds of this invention are expressed in Table I.

Experiment [2] deals with spontaneously hypertensive rats. The experiment is described as follows: antihypertensive effect: blood pressure monitored continuously in spontaneously hypertensive rats after ip dosing. Type of experiment: in vivo. Conditions: 50 mg/kg, 6 hours post dose in SHR, Mean Difference ± Standard Deviation. The protocol: The ability of the compounds of this invention to lower blood pressure can be determined in vivo using spontaneously hypertensive rats (SHR'S) according to standard and well known procedures. The test compound is administered intraperitoneally (ip) to rats and the blood pressure monitored continuously. Snce DBH is a major enzyme in the synthetic pathway of the catecholamines, it would be expected that the presence of an inhibitor would act to decrease the amount of catecholamines produced, and thereby have an antihypertensive effect. The results of the testing for this antihypertensive effect are shown in Table I (MBP is mean blood pressure).
In Vivo at 50 mg/kg, IP, 6 Hours Post Dose in SHR's*

What is called IC50 is the concentration needed to halve the response being measured. Higher therefore signals a need for much substance.

In the case of `NCc1nccn1Cc1cccs1` [Compound 1, 2-Aminomethyl-1-(2-thienylmethyl)-1H-imidazole], in experiment [1], inhibition was half-maximal at 12.8 µM (IC50). Also, in experiment [2], the “Max Change MBP (mean blood pressure)” value was -41 ± 14 mmHg.

`NC(=S)c1nccn1Cc1cccs1` [Compound 2, 1-(2-Thienylmethyl)-2-thiocarbamyl-1H-imidazole]: half-maximal inhibition in experiment [1] (IC50) was put at 4.7 µM. The “Max Change MBP (mean blood pressure)” value in experiment [2] is -25 ± 12 mmHg.
